For two compounds, MIC results are on record in patent publication US20200061047A1, “NEW USE OF RIFAMYCIN-QUINOLIZIDONE DUAL-ACTION MOLECULE” (TenNor Therapeutics Limited, priority 2017, published 2020).

The structures appear in SMILES notation. ≈ marks a conversion by molar mass, not a printed value. Like-named read-outs stand apart in the source and are kept apart here.

Common to all, as to format: cell-based
Test [1] concerns Bacteroides bifidum ATCC 1569. Description: MIC, agar dilution drug sensitivity test. The note with it: ATCC1569, Table 1. (In general: Agar dilution tests growth on a series of plates holding different concentrations.)
Test [2] deals with Eggerthella lenta ATCC 43055. Description: MIC, agar dilution drug sensitivity test. The note with it: ATCC43055, Table 1.
For test [3], the system named is Fusobacterium necrophorum ATCC 25286. Description: MIC, agar dilution drug sensitivity test. The note with it: ATCC25286, Table 1.
In test [4] the test system is Escherichia coli ATCC 25922. Description: MIC, agar dilution drug sensitivity test. Conditions: ATCC25922, Table 1.
The subject of test [5] is Helicobacter pylori ATCC 700824. Description: MIC, agar dilution drug sensitivity test. Conditions: ATCC700824, Table 1.
Test [6] deals with Peptostreptococcus prevotii ATCC 9321. Description: MIC, agar dilution drug sensitivity test. Conditions: Anaerococcus prevotii, ATCC9321, Table 1.
Test [7] relates to Yersinia enterocolitica ATCC 23715. Description: MIC, agar dilution drug sensitivity test. Conditions: ATCC23715, Table 1.
For test [8], the system named is Actinomyces naeslundii JMI 534283. Description: MIC, agar dilution drug sensitivity test. The note with it: JMI534283, Aerobic.
Test [9] relates to Alcaligenes faecalis JMI 940880. Description: MIC, agar dilution drug sensitivity test. The note with it: JMI940880, Aerobic.
Test [10] concerns Bacteroides vulgatus JMI 927011. Description: MIC, agar dilution drug sensitivity test. The note with it: Phocaeicola vulgatus, JMI927011.
Test [11] concerns Corynebacterium urealyticum JMI 2015_30. Description: MIC, agar dilution drug sensitivity test. Conditions: Aerobic.
For test [12], the system named is Proteus vulgaris ATCC 1331. Description: MIC, agar dilution drug sensitivity test. Conditions: Proteus vulgaris, ATCC1331, Proteus vulgaris ATCC 1331, read-out: MIC.
Test [13] relates to Streptococcus salivarius ATCC 25975. Description: MIC, agar dilution drug sensitivity test. The note with it: Streptococcus salivarius, ATCC25975, Streptococcus salivarius ATCC 25975, read-out: MIC.
Test [14] relates to Streptococcus pneumoniae ATCC 49619. Description: MIC, agar dilution drug sensitivity test. The note with it: read-out: MIC.
Test [15] deals with Clostridium difficile ATCC 700057. Description: MIC, agar dilution drug sensitivity test. The note with it: Clostridioides difficile, ATCC700057.
Test [16] concerns Clostridium perfringens ATCC 13124. Description: microbe, parasite or virus in culture. The note with it: ATCC13124.
The mark [17] stands for this setting: ATCC49619, Streptococcus pneumoniae ATCC 49619, Aerobic.
Setting [18] is: ATCC49619, Streptococcus pneumoniae ATCC 49619, Anaerobic.

In the case of `O=C(O)c1cn(C2CC2)c2cc(N3CCNCC3)c(F)cc2c1=O` [Ciprofloxacin, ciprofloxacin], the MIC in [1] is 2 mg/L (≈ 6.04 µM); in [2] it was 1 mg/L (≈ 3.02 µM); in test [3] it was 1 mg/L (≈ 3.02 µM); in test [4], 0.008 mg/L (≈ 0.0241 µM); in test [5], 0.12 mg/L (≈ 0.362 µM); in test [6] it was 1 mg/L (≈ 3.02 µM). The MIC was 0.015 mg/L (≈ 0.0453 µM) in test [7]; 2 mg/L (≈ 6.04 µM) in [8]; 1 mg/L (≈ 3.02 µM) in test [9]; greater than 16 mg/L in test [10]; greater than 16 mg/L in [11]; 0.03 mg/L (≈ 0.0905 µM) in test [12] (Aerobic). The MIC in test [12] (Anaerobic) turned out to be 0.03 mg/L (≈ 0.0905 µM); in test [13] (Aerobic) it was 1 mg/L (≈ 3.02 µM); in test [13] (Anaerobic), 2 mg/L (≈ 6.04 µM); in test [14] (setting [17]) it was 1 mg/L (≈ 3.02 µM); in [14] (setting [18]) it was 2 mg/L (≈ 6.04 µM).

`CO[C@H]1/C=C/O[C@@]2(C)Oc3c(C)c(O)c4c(O)c(c(/C=N/N5CCC(N(C)C6([C@@H]7CCN(c8c(F)cn9c(=O)c(C(=O)O)cc(C%10CC%10)c9c8C)C7)CC6)CC5)c(O)c4c3C2=O)NC(=O)/C(C)=C\C=C\[C@H](C)[C@H](O)[C@@H](C)[C@@H](O)[C@@H](C)[C@H](OC(C)=O)[C@@H]1C` [Compound I, (R)-3-[(4-{1-[1-(3-carboxy-1-cyclopropyl-7-fluoro-9-methyl-4-oxo-4H-quinolizine-8-yl)-pyrrolidin-3-yl-cyclopropyl]-methylamino}-piperidin-1-ylimino)-methylene]-rifamycin SV]: the MIC in test [1] amounted to 16 mg/L (≈ 13.3 µM); in test [15] it was 0.004 mg/L (≈ 0.00332 µM); in test [16], 0.03 mg/L (≈ 0.0249 µM); in test [2] it was 0.06 mg/L (≈ 0.0498 µM); in test [3] it was 0.12 mg/L (≈ 0.0996 µM); in test [4] it was 0.12 mg/L (≈ 0.0996 µM). Also, the MIC in test [5] was 0.12 mg/L (≈ 0.0996 µM); in test [6], 0.03 mg/L (≈ 0.0249 µM); in test [7] it was 0.12 mg/L (≈ 0.0996 µM); in test [8], 0.03 mg/L (≈ 0.0249 µM); in test [9], 32 mg/L (≈ 26.5 µM); in test [10], 16 mg/L (≈ 13.3 µM). For the same compound, the MIC was 0.03 mg/L (≈ 0.0249 µM) in test [11]; 0.5 mg/L (≈ 0.415 µM) in test [12] (Aerobic); greater than 64 mg/L in [12] (Anaerobic); 0.5 mg/L (≈ 0.415 µM) in test [13] (Aerobic); greater than 64 mg/L in test [13] (Anaerobic); 0.06 mg/L (≈ 0.0498 µM) in test [14] (setting [17]). Also, the MIC in [14] (setting [18]) came out at 0.06 mg/L (≈ 0.0498 µM).
